# From patent publication EP0248999A2, “Uses of enprostil-type prostaglandins in regulating fat and carbohydrate metabolism” (SYNTEX (U.S.A.) INC., priority 1986, dated 1987)
# Like-named read-outs stand apart in the source and are kept apart here.
# Tests used:
# [1] = tested on: insulin and GIP; experiment: Example 9: fatty meal study, insulin and GIP; type: in vivo, human
# Method: (§1) The following non-limiting examples will further clarify the nature of this invention. In these examples, serum lipids and cholesterol were measured by standard methods ("Manual of Laboratory Operations, Lipid Research Clinic Program, Lipid and Lipoprotein Analysis", DHEW Publication No. (NIH) 75-628 (1974)); serum insulin, GIP, and C-peptide were measured by radioimmunoassay; and apoproteins were measured by radial immunodiffusion.
# (§2) Six male subjects participated in a double-blind cross-over study. Either placebo or enprostil […] was orally given 30 minutes before a fatty meal consisting of approximately 600 Kcal, 90% of which was fat. Following the meal, serum triglycerides and total serum cholesterol were measured at serial time points before and after removal of serum chylomicrons by ultracentrifugation. Serum HDL-cholesterol was measured only before chylomicron removal.
# [2] = tested on: serum cholesterol levels; experiment: Example 2, Table 2: 9-day placebo-controlled cross-over study in normocholesterolemic subjects, serum lipids and apoproteins; type: in vivo, human; design: Mean reduction of cholesterol / Mean reduction of LDL-cholesterol / Mean reduction of HDL-cholesterol / Mean reduction of apoprotein-A / Mean reduction of apoprotein-B: concentration or dose not given beside the values; conditions: 9-day cross-over
# Method: as §1
# To further clarify the nature of these changes in a prospective manner, normal subjects were dosed with enprostil for periods ranging from 8 days up to 44 days in duration.
# In a 9-day placebo-controlled cross-over study, with each subject serving as their own control, the mean reduction in cholesterol, LDL-cholesterol, and HDL-cholesterol are shown in Table 2.
# These findings are surprising since the subjects in this study were normocholesterolemic at baseline (that is serum cholesterol under 250 mg/dl) and were on a free diet with no attempt to regulate dietary cholesterol intake.
# [3] = tested on: serum cholesterol levels; experiment: Example 3: 44-day placebo-controlled dosing study, total and LDL-cholesterol; type: in vivo, human
# Method: as §1
# In a 44-day dosing study, 20 subjects participated in a placebo-controlled trial. Ten subjects received enprostil and the remainder received placebo. Data were obtained from 9 of the 10 subjects who received enprostil. […] This subject was normocholesterolemic at baseline and no dietary manipulation was attempted.
# [4] = tested on: serum insulin and glucose levels; experiment: Example 5: double-blind cross-over meal study, serum insulin and glucose; type: in vivo, human; conditions: enprostil orally 30 minutes before meal
# Method: as §1
# A group of 10 subjects participated in a double-blind cross-over study. Either a placebo or enprostil was orally given 30 minutes before meal time and levels of insulin and glucose were measured after the meal.
# [5] = tested on: serum cholesterol; experiment: Example 1: oral enprostil, serum cholesterol in patients with high cholesterol baseline; type: in vivo, human; conditions: five weeks
# Method: as §1
# A group of 20 patients with high cholesterol baseline were orally given 70 µg enprostil twice daily. […] The median change for the group was 16 percent reduction, with 60 percent of the patients tested showing a significant reduction in serum cholesterol.
# A second group of 16 patients with a high cholesterol baseline were given […] enprostil twice daily.
# A third group of 13 individuals were given a placebo. […] The median change was a 2 percent increase in cholesterol.
# [6] = tested on: serum insulin and glucose levels; experiment: Example 6: eight-day cross-over study with standard breakfast, serum glucose, insulin and GIP; type: in vivo, human; conditions: 70 µg orally
# Method: as §1
# Eight healthy male subjects received either […] enprostil per day or placebo for eight days followed by a washout period of one week and a subsequent second eight-day administration during which they received the opposite drug regime.
# On day 1 and day 8 of each study period the subjects reported to the clinical studies unit fasting and were administered 70 µg of enprostil orally in a glass of water. Thirty minutes later they were administered a standard breakfast and blood samples were drawn at -30 (just prior to enprostil administration), O (at the time of enprostil administration), 15, 30, 60, 90, 120 and 180 minutes.
# [7] = tested on: atherosclerotic plaque; experiment: Example 10: cholesterol-fed rabbit, aortic atherosclerotic plaque; type: in vivo, New Zealand white rabbits; conditions: Group B: 2% cholesterol diet, enprostil 10 pg/Kg/day constant oral infusion, 56 days; vehicle Group A 25%
# Method: Fortyfive New Zealand white rabbits were allocated to three groups, A, B, and C, each group consisting of 15 rabbits. Group A was fed a 2% cholesterol diet and received vehicle administered by constant oral infusion at 62 ul/day using an Alza minipump. Group B was also fed a 2% cholesterol diet but, via the minipump, received enprostil at an infusion rate of 10 pg/Kg/day. Group C was fed a normal diet and received no treatment.
# At the end of 56 days of the above treatments, rabbits were sacrificed and their aortic tissue was subjected to pathologic examination. In Group C, the placebo control group, the percent of aortic area covered by atherosclerotic plaque was under 5%. In the rabbits from Group A, which had received the high cholesterol diet with vehicle infusion, 25% of the aortic area was covered with atherosclerotic plaque. These findings contrasted with those for the Group B rabbits, which in addition to the high cholesterol diet had received enprostil by continuous infusion . In these animals, only 10% of aortic tissue was covered with atheromatous plaque. This finding is statistically significant from the Group A rabbits.
# [8] = tested on: serum glucose levels; experiment: Example 8 (headed 'Example'): 30-day dosing study with standard breakfast, serum glucose; type: in vivo, human; conditions: enprostil 35 pg BID
# Method: 20 subjects participated in a study lasting up to 44 days. On day -8, all 20 subjects received a placebo capsule, followed 30 minutes later by a standard breakfast with serial blood measurements. Eight days later all 20 subjects were randomized to either enprostil 35 pg BID or placebo, and continued dosing for a period of 30 days. On days 1, 8, and 30, they were given enprostil followed 30 minutes later by a standard breakfast with serial blood measurements.
# [9] = tested on: serum cholesterol levels; experiment: Example 2, Table 1: oral enprostil BID in hypercholesterolemic patients versus placebo; type: in vivo, human
# Method: as §1
# [10] = tested on: serum GIP levels; experiment: Example 4: double-blind cross-over meal study, serum GIP; type: in vivo, human; conditions: 70p.g enprostil orally 30 minutes before meal; placebo four-fold increase
# Method: as §1
# Serum GIP levels are known to increase after meals.
# Groups of 10 subjects participated in a double-blind, cross-over study. Either a placebo or 70p.g enprostil was orally given 30 minutes before meal time and levels of GIP were measured.
# [11] = tested on: serum triglycerides; experiment: Example 9: double-blind cross-over fatty meal study, serum and chylomicron triglycerides; type: in vivo, human
# Method: as §1, §2
# [12] = tested on: serum glucose; experiment: Example 7: 25 g intravenous glucose tolerance test; type: in vivo, human; conditions: 25 g intravenous glucose 30 minutes after enprostil, day 2 and day 10
# Method: (§3) 10 normal subjects participated in a 10-day placebo-controlled cross-over study, receiving either placebo or 70 µg enprostil per day. On day 1 and day 9 of each study phase they orally received 5 g of d-xylose, a sugar not normally metabolized in man. Blood measurements for serum xylose were made at -30, 0, +30, 60, 120, 180, 240, and 300 minutes following ingestion.of xylose. On day 2 and day 10 of each study phase, the subjects received a 25 g intravenous glucose tolerance test, 30 minutes following enprostil administration.
# [13] = tested on: serum xylose; experiment: Example 7: oral d-xylose absorption test in 10-day cross-over study; type: in vivo, human; conditions: 5 g d-xylose orally
# Method: as §3
# [14] = Animal antisecretory assays; type: in vivo; conditions: compared with enprostil (isomer mixture)
# [15] = tested on: insulin levels; conditions: cited from earlier work
# [16] = of nine evaluable subjects receiving enprostil
# [17] = one subject, baseline to day 44
# [18] = enprostil 35 pg before fatty meal
# [19] = administered by tube to the duodenum
structure (smiles),measurement,setting,value
"COC(=O)CCC=C=CCC1C(=O)CC(O)C1C=CC(O)COc1ccccc1 (racemic) [enprostil, methyl (±)-7-[(1R*,2R*,3R*)-3-hydroxy-2-[(E)-(3R*)-3-hydroxy-4-phenoxy-l-butenyl]-5-oxocyclopentyl]-4,5-heptadienoate]",insulin levels following the fatty meal,"[1]; enprostil 35 pg, at 30, 60, and 90 minutes",significantly lower
same,GIP levels following the fatty meal,"[1]; enprostil 35 µg, up to 360 minutes, p<0.05",virtually completely suppressed
same,change in total triglycerides,[2],essentially no change
same,Mean reduction of HDL-cholesterol,[2]; free diet,-9.2%
same,Mean reduction of LDL-cholesterol,[2]; free diet,-21.0%
same,Mean reduction of apoprotein-A,[2]; free diet,-1.8%
same,Mean reduction of apoprotein-B,[2]; free diet,-16.0%
same,Mean reduction of cholesterol,[2]; free diet,-15.0%
same,individuals with reduction in total and LDL-cholesterol throughout the entire 44-day period,[3]; [16],Three
same,subjects showing a reduction of total cholesterol by 16 days,[3]; [16],Six
same,total serum cholesterol at day 44,"[3]; one subject (most dramatic example), mean baseline 208 mg/dl, normocholesterolemic, no dietary manipulation",123 mg/dL
same,LDL-cholesterol at day 44,"[3]; one subject, baseline 140 mg/dl",75 mg/dL
same,reduction in LDL-cholesterol,[3]; [17],46%
same,reduction of total serum cholesterol,[3]; [17],43%
same,raise in glucose levels after the meal,[4],no statistically or clinically significant raise
same,increase of insulin levels after the meal,[4]; placebo five-fold,two-fold
same,median change (reduction) of serum cholesterol,"[5]; 35 pg enprostil twice daily, 16 patients with high cholesterol baseline",eleven
same,number of patients showing greater than 10 percent serum cholesterol reduction,"[5]; 35 pg twice daily, 16 patients",eight
same,number of patients showing greater than 25 percent reduction,"[5]; 35 pg twice daily, 16 patients",one
same,number of patients showing no change in serum cholesterol,"[5]; 35 pg twice daily, 16 patients",seven
same,patients showing serum cholesterol reduction,"[5]; 35 pg twice daily, 16 patients",56%
same,median change (reduction) of serum cholesterol,"[5]; 70 µg enprostil orally twice daily, 20 patients with high cholesterol baseline",16%
same,number of patients showing greater than 10 percent reduction,"[5]; 70 µg twice daily, 20 patients",eleven
same,number of patients showing greater than 25 percent reduction,"[5]; 70 µg twice daily, 20 patients",one
same,number of patients showing no change in serum cholesterol,"[5]; 70 µg twice daily, 20 patients",eight
same,patients tested showing a significant reduction in serum cholesterol,"[5]; 70 µg twice daily, 20 patients",60%
same,serum GIP,[6]; both study days,essentially complete inhibition
same,serum insulin concentrations for each time point,[6]; day 1 and 8,marked reduction
same,reduction of area under the serum glucose by time curve compared to the placebo phase,[6]; day 1 and day 8,15-20%
same,aortic tissue covered with atheromatous plaque,[7],10%
same,peak blood glucose levels versus placebo,[8]; standard breakfast,substantially reduced
same,time of appearance of peak blood glucose levels,"[8]; standard breakfast 30 minutes after dose, placebo approximately 60 minutes",~90 min
same,Cholesterol % decrease (combined 2-12 week of dosing),"[9]; 7 µg BID, 9 hypercholesterolemic subjects",67%
same,Median % change (cholesterol),"[9]; 7 µg BID, 9 subjects",-11%
same,Cholesterol % decrease (combined 2-12 week of dosing),"[9]; 35 µg BID, 28 hypercholesterolemic subjects",64%
same,Median % change (cholesterol),"[9]; 35 µg BID, 28 subjects",-13%
same,Cholesterol % decrease (combined 2-12 week of dosing),"[9]; 70 µg BID, 28 hypercholesterolemic subjects",64%
same,Median % change (cholesterol),"[9]; 70 µg BID, 28 subjects",-17%
same,increase in serum GIP 60 minutes after the meal stimulus,[10],no increase
same,maximal postprandial total serum triglycerides before chylomicron removal,"[11]; enprostil 35 pg 30 minutes before fatty meal, at 360 minutes, placebo 160 mg/dl at 120 minutes",105 mg/dL
same,appearance of postprandial serum,[11]; [18],remained clear
same,chylomicron triglyceride content (in words),[11]; [18],virtually complete suppression
same,chylomicron-associated triglyceridemia through 120 minutes,[11]; [18],complete absence
same,fasting baseline total serum triglycerides before chylomicron removal,"[11]; enprostil 35 pg phase, mean, placebo 86 mg/dl",83 mg/dL
same,fasting serum triglycerides after chylomicron removal,"[11]; enprostil 35 pg phase, placebo 82 mg/dl",80 mg/dL
same,maximal postprandial serum triglycerides after chylomicron removal,"[11]; enprostil 35 pg, 360 minutes, placebo 115 mg/dl (180 minutes)",89 mg/dL
same,mean rise of chylomicron triglyceride content over fasting level,"[11]; enprostil 35 pg, at 360 minutes after fatty meal, placebo 46 mg/dl (120 minutes)",16 mg/dL
same,"serum glucose by time curves following intravenous glucose administration, enprostil versus placebo",[12],no marked differences
same,peak serum xylose levels,"[13]; 70 µg enprostil per day, days 1 and 9",marked suppression and delay
same,reduction in the amount of xylose excreted over 5 hours,[13]; 70 µg per day,30%
same,amount of xylose excreted over 5 hours,"[13]; 70 µg per day, placebo 1.8g",1.3 g
"COC(=O)CCC=C=CC[C@H]1C(=O)C[C@@H](O)[C@@H]1/C=C/[C@@H](O)COc1ccccc1 (single isomer, unassigned) [R allenic isomer of enprostil]",potency in animal antisecretory assays,[14],increased potency
same,toxicity in animal antisecretory assays,[14],lower toxicity
"CCCCC[C@](C)(O)/C=C/[C@H]1[C@H](O)CC(=O)[C@@H]1C/C=C\CCCC(=O)OCC [(15S),15-methyl-PGE2 ethyl ester]",glucose levels,[15]; intravenous administration,without affecting
same,insulin levels,[15]; intravenous administration,lowered
"CCCCC[C@](C)(O)/C=C/[C@H]1[C@H](O)CC(=O)[C@@H]1C/C=C\CCCC(=O)OC [(15S),15-methyl-PGE2 methyl ester]",insulin levels,[15]; [19],lowered
same,serum glucose levels,[15]; [19],no change
same,time to peak serum glucose levels,[15]; intraduodenally or intravenously,no change
